What was measured:
[1] = molecular target: T1, human adenosine A2A receptor (Homo sapiens, UniProt P29274); assay: Adenosine A2A receptor functional assay (A2AGAL2), cAMP inducible beta-galactosidase reporter, NECA challenge; type: cell-based; details: for IC50: CHO-K1 cells overexpressing human A2A receptor, antagonist curve against 15 nM NECA; for A1/A2A: ratio of A1Gal2 to A2AGal2 values (selectivity for A2A over A1)
T1 construct: expressed in transfected cells; host or cells: CHO-K1
Experimental: Adenosine A2 Receptor Functional Assay (A2AGAL2)
To initiate the functional assay, cryopreserved CHO—K1 cells overexpressing the human adenosine A2A receptor and containing a cAMP inducible beta-galactosidase reporter gene were thawed, centrifuged, DMSO containing media removed, and then seeded with fresh culture media into clear 384-well tissue culture treated plates (BD #353961) at a concentration of 10K cells/well. Prior to assay, these plates were cultured for two days at 37° C., 5% CO2, 90% Rh. On the day of the functional assay, culture media was removed and replaced with 45 μL assay medium (Hams/F-12 Modified (Mediatech # 10-080CV) supplemented w/0.1% BSA). Test compounds were diluted and 11 point curves created at a 1000× concentration in 100% DMSO. Immediately after addition of assay media to the cell plates, […] of the appropriate test compound antagonist or agonist control curves were added to cell plates using a Cartesian Hummingbird. Compound curves were allowed to incubate at room temperature on cell plates for approximately 15 minutes before addition of a 15 nM NECA (Sigma E2387) agonist challenge (5 μL volume). A control curve of NECA, a DMSO/Media control, and a single dose of Forskolin (Sigma F3917) were also included on each plate. After additions, cell plates were allowed to incubate at 37° C., 5% CO2, 90% Rh for 5.5-6 hours. After incubation, media were removed, and cell plates were washed 1×50 μL with DPBS w/o Ca & Mg (Mediatech 21-031-CV). Into dry wells, 20 μL of 1× Reporter Lysis Buffer (Promega E3971 (diluted in dH2O from 5× stock)) was added to each well and plates frozen at −20° C. overnight. For β-galactosidase enzyme colorimetric assay, plates were thawed out at room temperature and 20 μL 2× assay buffer (Promega) was added to each well. Color was allowed to develop at 37° C., 5% CO2, 90% Rh for 1-1.5 h or until reasonable signal appeared. The colorimetric reaction was stopped with the addition of 60 μL/well 1M sodium carbonate. Plates were counted at 405 nm on a SpectraMax Microplate Reader (Molecular Devices). Data was analyzed in Microsoft Excel and IC/EC50 curves were fit using a standardized macro.

[2] = molecular target: T2, human adenosine A1 receptor (Homo sapiens, UniProt P30542); assay: Adenosine A1 receptor functional assay (A1GAL2), cAMP inducible beta-galactosidase reporter, r-PIA/Forskolin challenge; type: cell-based; details: CHO-K1 cells overexpressing human A1 receptor; antagonist curve against 4 nM r-PIA/1 uM Forskolin
T2 construct: expressed in transfected cells; host or cells: CHO-K1
T2 sequence (P30542 1-326): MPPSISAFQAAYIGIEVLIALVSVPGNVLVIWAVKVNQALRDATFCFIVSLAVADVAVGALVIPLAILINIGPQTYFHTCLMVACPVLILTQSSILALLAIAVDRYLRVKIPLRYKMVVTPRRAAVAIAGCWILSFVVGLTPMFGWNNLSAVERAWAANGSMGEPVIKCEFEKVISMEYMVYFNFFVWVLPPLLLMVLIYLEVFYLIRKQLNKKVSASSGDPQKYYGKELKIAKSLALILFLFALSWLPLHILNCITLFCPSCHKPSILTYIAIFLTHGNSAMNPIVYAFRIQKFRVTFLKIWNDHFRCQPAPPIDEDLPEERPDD
Experimental: Adenosine A1 Receptor Functional Assay (A1GAL2)
To initiate the functional assay, cryopreserved CHO—K^1 cells overexpressing the human adenosine A1 receptor and containing a cAMP inducible beta-galactosidase reporter gene were thawed, centrifuged, DMSO containing media removed, and then seeded with fresh culture media into clear 384-well tissue culture treated plates (BD #353961) at a concentration of 10K cells/well. Prior to assay, these plates were cultured for two days at 37° C., 5% CO2, 90% Rh. On the day of the functional assay, culture media was removed and replaced with 45 μL assay medium (Hams/F-12 Modified (Mediatech # 10-080CV) supplemented w/0.1% BSA). Test compounds were diluted and 11 point curves created at a 1000× concentration in 100% DMSO. Immediately after addition of assay media to the cell plates, […] of the appropriate test compound antagonist or agonist control curves were added to cell plates using a Cartesian Hummingbird. Compound curves were allowed to incubate at room temperature on cell plates for approximately 15 minutes before addition of a 4 nM r-PIA (Sigma P4532)/1 uM Forskolin (Sigma F3917) agonist challenge (5 μL volume). A control curve of r-PIA in 1 uM Forskolin, a DMSO/Media control, and a single dose of Forskolin were also included on each plate. After additions, cell plates were allowed to incubate at 37° C., 5% CO2, 90% Rh for 5.5-6 hours. After incubation, media was removed, and cell plates were washed 1×50 μL with DPBS w/o Ca & Mg (Mediatech 21-031-CV). Into dry wells, 20 μL of 1× Reporter Lysis Buffer (Promega E3971 (diluted in dH2O from 5× stock)) was added to each well and plates frozen at −20° C. overnight. For β-galactosidase enzyme colorimetric assay, plates were thawed out at room temperature and 20 μL 2× assay buffer (Promega) was added to each well. Color was allowed to develop at 37° C., 5% CO2, 90% Rh for 1-1.5 h or until reasonable signal appeared. […] Plates were counted at 405 nm on a SpectraMax Microplate Reader (Molecular Devices). Data was analyzed in Microsoft Excel and IC/EC50 curves were fit using a standardized macro.

T1 sequence (P29274 whole entry): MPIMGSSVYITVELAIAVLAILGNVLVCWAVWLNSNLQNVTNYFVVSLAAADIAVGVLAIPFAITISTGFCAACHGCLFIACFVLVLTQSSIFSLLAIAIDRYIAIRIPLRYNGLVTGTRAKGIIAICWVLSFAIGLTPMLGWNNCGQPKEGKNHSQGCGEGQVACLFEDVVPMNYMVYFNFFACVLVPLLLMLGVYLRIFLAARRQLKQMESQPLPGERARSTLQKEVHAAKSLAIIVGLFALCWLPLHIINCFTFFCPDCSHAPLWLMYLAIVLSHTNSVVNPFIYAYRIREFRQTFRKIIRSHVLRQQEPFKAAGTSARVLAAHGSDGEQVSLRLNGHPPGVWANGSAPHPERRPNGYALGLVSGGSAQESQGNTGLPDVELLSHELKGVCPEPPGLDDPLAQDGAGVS

Structure (SMILES)	IC50 [1]	A1/A2A [1]	IC50 [2]
Cc1nc(C)c(Cc2cccc3c2-c2nc(N)nc(-c4ccc(F)cc4)c2C3=O)s1 [Example 1, 2-Amino-9-(2,4-dimethyl-thiazol-5-ylmethyl)-4-(4-fluoro-phenyl)-indeno[1,2-d]pyrimidin-5-one]	0.0119 µM	276.249	3.28 µM
Nc1nc(-c2ccc(F)cc2)c2c(n1)-c1c(Cc3cn[nH]c3)cccc1C2=O [Example 2, 2-Amino-4-(4-fluoro-phenyl)-9-(1H-pyrazol-4-ylmethyl)-indeno[1,2-d]pyrimidin-5-one]	0.00075 µM	195.975	0.147 µM
Cc1noc(C)c1Cc1cccc2c1-c1nc(N)nc(-c3ccc(F)cc3)c1C2=O [Example 3, 2-Amino-9-(3,5-dimethyl-isoxazol-4-ylmethyl)-4-(4-fluoro-phenyl)-indeno[1,2-d]pyrimidin-5-one]	0.0413 µM	64.5654	2.67 µM
